# Measurements as given in US20220265667A1 (priority 2019, published 2022).
# Like-named read-outs stand apart in the source and are kept apart here.
# Key:
# [1] = test system: murine bone marrow-derived mast cells (BMMCs); assay: In vitro release of β-hexosaminidase (degranulation) from IgE-preloaded murine bone marrow-derived mast cells; type: cell-based, mice
# Procedure: According to the technique established by Razin et al. (Proc. Natl. Acad. Sci. USA 1981, 78:2559-2561), bone marrow cells (1×10^6/ml) from 6 to 8 week old mice (129/Sv×C57BL/6) were cultured (37° C. and 5% CO2) as single cell suspensions in RPMI 1640 medium (Sigma-Aldrich, Munich, Germany) supplemented with 15% fetal calf serum (FCS), 1% X63Ag8-653-conditioned medium (Karasuyama and Melchers, Eur. J. Immunol. 1988, 18:97-104), 2 mM L-glutamine, 10 μM β-mercaptoethanol, 50 units/ml penicillin, and […] streptomycin. At weekly intervals, the non-adherent cells were reseeded at 5×10^5 cells/ml in fresh medium. After 4-6 weeks in culture, greater than 99% of the cells were KIT- and […] as assessed by fluorescence-activated cell sorting (FACS) using phycoerythrin-labeled anti-KIT antibodies (Pharmingen, Mississauga, Canada) and fluorescein isothiocyanate (FITC)-labelled hamster anti-mouse FcεRIα antibodies (eBioscience, Frankfurt, Germany), respectively. The resulting cells are called bone marrow-derived mast cells (BMMCs).
# For degranulation studies, BMMCs were preloaded with 0.15 μg/ml IgE anti-DNP (dinitrophenyl; Sigma Aldrich, Munich, Germany) overnight at 37° C. The cells were then washed and resuspended in Tyrode's buffer (130 mM NaCl, 5 mM KCl, 1.4 mM CaCl2, 1 mM MgCl2, 5.6 mM glucose, and 0.1% bovine serum albumin (BSA) in 10 mM Hepes, pH 7.4).
# Subsequently, the cells were left unstimulated (unst) or stimulated with 20 ng/ml antigen (Ag: dinitrophenyl-human serum albumin ([DNP-HSA]; dissolved in medium); Sigma Aldrich, Munich, Germany) for 30 min. The degree of degranulation was determined by measuring the release of β-hexosaminidase (Nishizumi et al., J Immunol 1997; 158:2350-2355). Experiments were performed in triplicates.
# [2] = test system: human nasal tissue mast cells activated with SCF; assay: Ex vivo SCF-induced tryptase release (degranulation) of human nasal tissue mast cells; type: cell-based; conditions: for Tryptase: with SCF; for inhibition at 1 µM / inhibition at 3 µM / inhibition at 10 µM / inhibition at 30 µM / inhibition at 60 µM / inhibition at 150 µM / inhibition at 300 µM / IC50: Homo sapiens, Mast cell; for inhibition at 1 µM / inhibition at 3 µM / inhibition at 10 µM / inhibition at 30 µM / inhibition at 60 µM / inhibition at 150 µM / inhibition at 300 µM: read-out: percentage inhibition of degranulation (tryptase); for IC50: read-out: IC50 ex vivo inhibition of tryptase degranulation; for HillSlope / LogIC50: SCF
# Excerpt: Fresh human nasal mucosa was used (middle nasal turbinate), which was surgically removed as standard procedure during nose correction surgeries (septorhinoplasty with conchotomy). Only tissues from those patients who had not previously received medication in the form of cortisone preparations or antihistamines were used. The removed tissue was cleansed immediately after the surgical removal with Epilife Medium (Thermo Fisher Scientific, No. […]500), referred to as “medium” in terms of ex vivo experiments, a chemically defined, serum-free full medium for epithelial cells and keratinocytes. The tissue was then cut into 12 pieces of equal size, cleansed again in the medium, and the exact fresh weight of the cut tissue pieces was determined for later normalization and then stored overnight in cold medium. The weight of the tissue pieces varied between 10 and 20 mg.
# After an one hour of pre-incubation with the respective compositions i) or ii), 0.4 μg/ml stem cell growth factor (SCF, Peprotech) was added to each well—except for one well serving as the negative control—in order to induce tryptase degranulation. […] Immediately after the removal of 250 μl supernatant, the volume in each well was increased to the original level and the original composition by adding 250 μl of the respective composition i), and ii).
# For the determination of the amount of degranulated tryptase, the frozen supernatants were thawed at 22° C. and then subjected to a tryptase ELISA Kit from Boster Biological Technology Co., Ltd (No. EZ0898, Assay Range: 156-10000 pg/ml, Sensitivity: <15 pg/ml) according to manufacturer's instructions, and the ELISA measurements were performed with the Multiskan Go instrument from Thermo Scientific and the SkanIt Re 4.1 software.
# The statistical analysis was conducted in two steps. In a first step, the raw measurement values were normalized to 10 mg tissue. In a second step, a correction factor was introduced for all time points of supernatant removal to compensate for the 250 μl supernatant taken for analysis at each time and the subsequent re-addition of medium incl. factors. The statistical calculations were performed with Microsoft Excel 2010.
# For the analysis, a non-linear regression (variable slope—4-parametric) was used. The program setting “Dose-Response-Inhibition” was applied for an automatic calculation, readout and display of the IC50 values.
# [3] = Mus musculus, BMMC, read-out: percentage of inhibition of β-hexosaminidase release
smiles,measurement,setting,value
"CCNC1=Nc2ccc(Cl)cc2C(C)(c2ccccc2)O1 (racemic) [Etifoxine, 6-Chloro-2-N-ethyl-4-methyl-4-phenyl-4H-3,1-benzoxazine-2-amine]",inhibition at 10 µM,[1]; [3],30%
same,inhibition at 30 µM,[1]; [3],68%
same,activity (degranulation) of unstimulated IgE-loaded BMMCs,"[1]; unstimulated (absence of Ag), independently of the concentration studied",not significantly affected
same,Tryptase,"[2]; 1 μM Etifoxine, 120 min",12.1 pg/ml/10 mg tissue
same,Tryptase,"[2]; 1 μM Etifoxine, 240 min",1113.7 pg/ml/10 mg tissue
same,Tryptase,"[2]; 1 μM Etifoxine, 480 min",1791.7 pg/ml/10 mg tissue
same,Tryptase,"[2]; 1 μM Etifoxine, 1440 min",5547.4 pg/ml/10 mg tissue
same,Tryptase,"[2]; 3 μM Etifoxine, 120 min",38.7 pg/ml/10 mg tissue
same,Tryptase,"[2]; 3 μM Etifoxine, 240 min",1030.3 pg/ml/10 mg tissue
same,Tryptase,"[2]; 3 μM Etifoxine, 480 min",1789.0 pg/ml/10 mg tissue
same,Tryptase,"[2]; 3 μM Etifoxine, 1440 min",5512.9 pg/ml/10 mg tissue
same,Tryptase,"[2]; 10 μM Etifoxine, 120 min",71.9 pg/ml/10 mg tissue
same,Tryptase,"[2]; 10 μM Etifoxine, 240 min",594.5 pg/ml/10 mg tissue
same,Tryptase,"[2]; 10 μM Etifoxine, 480 min",1284.9 pg/ml/10 mg tissue
same,Tryptase,"[2]; 10 μM Etifoxine, 1440 min",3185.9 pg/ml/10 mg tissue
same,Tryptase,"[2]; 30 μM Etifoxine, 120 min",109.4 pg/ml/10 mg tissue
same,Tryptase,"[2]; 30 μM Etifoxine, 240 min",449.9 pg/ml/10 mg tissue
same,Tryptase,"[2]; 30 μM Etifoxine, 480 min",979.7 pg/ml/10 mg tissue
same,Tryptase,"[2]; 30 μM Etifoxine, 1440 min",2400.2 pg/ml/10 mg tissue
same,Tryptase,[2]; 60 μM Etifoxine,1218.2 pg/ml/10 mg tissue
same,Tryptase,"[2]; 60 μM Etifoxine, 120 min",152.7 pg/ml/10 mg tissue
same,Tryptase,"[2]; 60 μM Etifoxine, 240 min",345.9 pg/ml/10 mg tissue
same,Tryptase,"[2]; 60 μM Etifoxine, 480 min",689.7 pg/ml/10 mg tissue
same,Tryptase,[2]; 150 μM Etifoxine,1040.1 pg/ml/10 mg tissue
same,Tryptase,"[2]; 150 μM Etifoxine, 120 min",163.3 pg/ml/10 mg tissue
same,Tryptase,"[2]; 150 μM Etifoxine, 240 min",576.8 pg/ml/10 mg tissue
same,Tryptase,"[2]; 150 μM Etifoxine, 480 min",1042.4 pg/ml/10 mg tissue
same,Tryptase,"[2]; 300 μM Etifoxine, 120 min",71.9 pg/ml/10 mg tissue
same,Tryptase,"[2]; 300 μM Etifoxine, 240 min",459.3 pg/ml/10 mg tissue
same,Tryptase,"[2]; 300 μM Etifoxine, 480 min",991.8 pg/ml/10 mg tissue
same,Tryptase,"[2]; 300 μM Etifoxine, 1440 min",559.4 pg/ml/10 mg tissue
same,inhibition at 1 µM,[2]; 4 h,0%
same,inhibition at 3 µM,[2]; 4 h,0%
same,inhibition at 10 µM,[2]; 4 h,15%
same,inhibition at 30 µM,[2]; 4 h,56%
same,inhibition at 60 µM,[2]; 4 h,85%
same,inhibition at 150 µM,[2]; 4 h,21%
same,inhibition at 300 µM,[2]; 4 h,53%
same,inhibition at 1 µM,[2]; 8 h,0%
same,inhibition at 3 µM,[2]; 8 h,0%
same,inhibition at 10 µM,[2]; 8 h,28%
same,inhibition at 30 µM,[2]; 8 h,90%
same,inhibition at 60 µM,[2]; 8 h,148%
same,inhibition at 150 µM,[2]; 8 h,77%
same,inhibition at 300 µM,[2]; 8 h,87%
same,IC50,[2]; 4 hours after SCF addition,6.12 µM
same,IC50,[2]; 8 hours after SCF addition,9.07 µM
same,HillSlope,[2]; Tryptase 4 h,−2.791
same,LogIC50,[2]; Tryptase 4 h,0.7865
same,HillSlope,[2]; Tryptase 8 h,−3.492
same,LogIC50,[2]; Tryptase 8 h,0.9578
same,inhibition of SCF-triggered tryptase release (degranulation) achieved (complete),"[2]; summary statement, mast cells of human nasal pieces",100%
